Target: T1, Broad substrate specificity ATP-binding cassette transporter ABCG2 (Homo sapiens, UniProt Q9UNQ0)
T1 sequence (Q9UNQ0 whole entry): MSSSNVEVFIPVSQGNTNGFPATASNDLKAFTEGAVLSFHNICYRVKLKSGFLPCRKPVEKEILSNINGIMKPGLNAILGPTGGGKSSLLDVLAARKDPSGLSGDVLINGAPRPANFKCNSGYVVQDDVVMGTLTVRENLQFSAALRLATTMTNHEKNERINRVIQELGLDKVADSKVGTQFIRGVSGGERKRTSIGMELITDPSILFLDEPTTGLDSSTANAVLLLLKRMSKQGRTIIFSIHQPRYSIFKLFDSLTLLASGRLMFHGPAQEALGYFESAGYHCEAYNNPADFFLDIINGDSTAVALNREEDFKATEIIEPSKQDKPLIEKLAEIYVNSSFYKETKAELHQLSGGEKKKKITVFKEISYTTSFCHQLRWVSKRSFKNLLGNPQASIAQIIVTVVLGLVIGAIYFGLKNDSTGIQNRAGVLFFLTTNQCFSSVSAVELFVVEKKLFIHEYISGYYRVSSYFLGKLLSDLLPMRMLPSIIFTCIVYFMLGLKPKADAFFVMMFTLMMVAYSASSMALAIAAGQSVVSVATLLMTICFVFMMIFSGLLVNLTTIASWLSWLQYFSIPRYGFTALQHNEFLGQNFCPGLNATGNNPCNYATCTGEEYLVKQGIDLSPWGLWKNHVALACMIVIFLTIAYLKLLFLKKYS
Assay: TP_TRANSPORTER: uptake in BCRP-expressing HEK293 cells
Format: functional, cell-based

Activity: substrate []
Compound: CC[C@@]1(O)C(=O)OCc2c1cc1n(c2=O)Cc2cc3c(N)cccc3nc2-1 [9-AMINOCAMPTOTHECIN]

Source: ChEMBL document CHEMBL2074185, “Differential effects of the breast cancer resistance protein on the cellular accumulation and cytotoxicity of 9-aminocamptothecin and 9-nitrocamptothecin” (Cancer Res, 2003)
